Source: patent US11801232B2, “Targeting of ARID1A-deficient cancers by inhibiting de novo pyrimidine synthesis pathway” (YALE UNIVERSITY, priority 2019, dated 2023)

What was measured:
P-CHK1 Ser345 = experiment: Immunoblot of phosphorylated CHK1 in ES2 cell lysates; format: cell-based, human; settings: ES2 cells; teriflunomide 15 μM, AZD6738 1.5 μM
Protocol: Immunoblot Analysis and Co-Immunoprecipitation Assay. For immunoblotting experiments, cells were lysed in BC200 lysis buffer [20 mM Tris-HCl (pH 7.5), 200 mM NaCl, 1 mM EDTA, 0.2% Nonidet P-40 (NP-40), freshly added complete protease inhibitor cocktail (from Roche), and PhosSTOP phosphatase inhibitor (from Roche)] or in boiling SDS lysis buffer [1% SDS and 10 mM Tris-CI (pH 7.5)], as previously described^21. Protein concentrations were quantified using a modified Lowry assay, and equal protein amounts were loaded onto a 10% SDS-PAGE gel and separated by gel electrophoresis, followed by transfer to a nitrocellulose membrane. The nitrocellulose membrane was stained with Ponceau S to confirm equal protein loading and then blocked in 2% BSA in Tris-buffered saline with 0.1% Tween-20 (tris buffered saline with tween, or TBST). Primary antibody incubation was done for 2 h at room temperature or, for phospho-specific antibodies, overnight at 4° C. An HRP-conjugated secondary antibody was used, followed by detection using enhanced chemiluminescence substrate (from Pierce). Autoradiograph images were scanned and saved as unmodified TIFF images, and densitometry analysis was done with ImageJ (from NIH) software.

ES2-shARID1A xenografts = settings: mouse, in vivo, ip, 4 mg/kg
Protocol: Animal Model. All animal procedures were conducted in accordance with a protocol approved by the Institutional Animal Care and Use Committee at Yale University.
Three mouse experiments were performed: (i) to assess an effect of teriflunomide on ES2 cells in vivo, (ii) to assess an effect of teriflunomide on SKOV3 cells in vivo, and (iii) to assess a combination effect of teriflunomide and AZD6738 on ES2-shARID1A cells in vivo. All experiments were performed using subcutaneous cell-xenograft models generated by injecting cells into the flanks of 6-week-old female athymic NCr-nu/nu mice (Charles River Laboratories).
Animal-human dose translation was calculated as previously described^24. Tumor volumes were measured every other day by caliper to determine tumor volume using the formula (length/2)×(width^2). […] Experiments were terminated when mean tumor volume of a vehicle ES2-shCon group reached 1000 mm^3. Tumor xenografts were excised at time of euthanasia. Representative samples were flash-frozen in liquid nitrogen for subsequent protein expression analysis by immunoblotting, as well as being formalin-fixed paraffin-embedded (alternatively, FFPE) for subsequent hematoxylin and eosin staining and immunohistochemical analysis. FFPE sections were reviewed by a pathologist (alternatively, P.H.), and cellular necrosis was quantified as % cross-sectional area of bisected tumor xenografts. […]

| Structure (SMILES) | Phosphorylation of CHK1 on serine 345 (P-CHK1 Ser345) | Weight loss or toxicity in mice (ES2-shARID1A xenografts) |
| --- | --- | --- |
| C[C@@H]1COCCN1c1cc(C2([S@](C)(=N)=O)CC2)nc(-c2cc[nH]c3nccc2-3)n1 [AZD6738] | decreased levels | – |
| C/C(O)=C(\C#N)C(=O)Nc1ccc(C(F)(F)F)cc1 [Teriflunomide, teriflunomide] | – | no significant weight loss or toxicity |
